Laboratory results published in patent US20260232767A1, “INTERLEUKIN-23 RECEPTOR ANTAGONIST PEPTIDES FOR USE IN THE TREATMENT OF PSORIASIS” (Janssen Pharmaceutica NV, priority 2023, published 2026).

How the values were obtained:
Type in all cases: in vivo, human
[1] = tested on: subjects with moderate-to-severe plaque psoriasis; assay: PSSD symptoms and signs scores, Example 1; conditions: each dose group vs placebo; Week 16
Description: The Psoriasis Symptom and Sign Diary (PSSD) includes patient-reported outcome (PRO) questionnaires designed to measure the severity of psoriasis symptoms and signs for the assessment of treatment benefit. This study uses a 7-day recall version of the PSSD that asks the participant to answer the questions thinking about the last 7 days. The PSSD is a self-administered PRO instrument and includes 11 items covering symptoms (itch, pain, stinging, burning, and skin tightness) and patient-observable signs (skin dryness, cracking, scaling, shedding or flaking, redness, and bleeding) using 0 to 10 numerical rating scales for severity. Two subscores will be derived each ranging from 0 to 100: the psoriasis symptom score and the psoriasis sign score. A higher score indicates more severe disease.
(§1) Efficacy, PK, immunogenicity, biomarker, pharmacogenomic, and safety criteria were measured during the treatment. Subjects were provided with an electronic device to enter patient-reported outcome (PRO) data at each study visit. All visit-specific PRO assessments were conducted/completed before any tests, procedures or other clinical assessments, with the exception of the urine pregnancy test and urinalysis, to prevent influencing subject perceptions.

[2] = tested on: subjects with moderate-to-severe plaque psoriasis; assay: DLQI, Example 1; conditions: each dose group vs placebo; Week 16
Description: The Dermatological Life Quality Index (DLQI) is a dermatology-specific health-related quality of life (HRQoL) instrument designed to assess the impact of the disease on a participant's HRQoL. It is a 10-item questionnaire that assesses HRQoL over the past week and in addition to evaluating overall HRQoL, can be used to assess 6 different aspects that may affect quality of life: symptoms and feelings, daily activities, leisure, work or school performance, personal relationships, and treatment. The total score ranges from 0 to 30 with a higher score indicating greater impact on quality of life (QoL).
as §1

IL-17A = assay: Serum IL-17A immunoassay; conditions: all treatment groups relative to placebo
Protocol: To evaluate psoriasis relevant systemic biomarkers (Beta-defensin 2 (BD-2), IL-17A, IL-17F, and IL-22), protein concentrations were measured in serum using validated immunoassays. The IL-17A (Catalog #03-0159-00) and IL-17F (Catalog #03-0164-00) assays used are commercially available SMC™-based high sensitivity immunoassays produced by the EMD Millipore Corporation. The manufacturer's protocols were followed and analyzed on the Erenna® instrument platform except for the use of 11 μL Elution Buffer B. While the IL-22 assay is also based on the SMC™ platform and run on the Erenna instrument, the assay was developed internally as a coated plate-based assay. The development and optimization of the BD-2 assay was done on the Meso Scale Discovery on the electrochemiluminescence-based platform, a division of Meso Scale Diagnostics LLC (MSD). For all assays, concentration adjustments were made to values measuring below empirically defined LLOQ or empirically defined ULOQ values. Assay QC verified performance of generated standard curves (average concentration recovery & CV of technical replicates) and control samples (inter-assay plate agreement (CV)).
Serum levels of psoriasis disease biomarkers BD-2, IL-22, IL-17A, and IL-17F relative to baseline were analyzed in patients who received placebo or the compound of Formula (I) and compared to clinical response. […]

[3] = tested on: subjects with moderate-to-severe plaque psoriasis; assay: Treatment disposition, Example 2
[4] = 25 mg BID, Week 16 to Week 52, N=40
[5] = 25 mg BID, through Week 52, N=41
[6] = 25 mg QD, Week 16 to Week 52, N=35
[7] = 25 mg QD, through Week 52, N=43
[8] = 50 mg QD, through Week 52, N=43
[9] = 100 mg BID, through Week 52, N=42
[10] = 100 mg QD, Week 16 to Week 52, N=40
[11] = 100 mg QD, through Week 52, N=43
[12] = Combined, Week 16 to Week 52, N=227
[13] = Combined, through Week 52, N=247

CC(=O)NCCCC[C@@H]1NC(=O)[C@H](Cc2c[nH]c3c(C)cccc23)NC(=O)[C@H]([C@@H](C)O)NC(=O)[C@H](CC(N)=O)NC(=O)[C@@H](NC(C)=O)C(C)(C)SSC(C)(C)[C@@H](C(=O)N[C@@H](Cc2ccc(OCCN)cc2)C(=O)N[C@@H](Cc2ccc3ccccc3c2)C(=O)NC2(C(=O)N[C@@H](CCC(=O)O)C(=O)N[C@@H](CC(N)=O)C(=O)N[C@@H](Cc3cccnc3)C(=O)N(C)CC(N)=O)CCOCC2)NC1=O [IL-23 receptor antagonist peptide, Ac-[Pen]*-N-T-[W(7-Me)]-[Lys(Ac)]-[Pen]*-Phe[4-(2-aminoethoxy)]-[2-Nal]-[THP]-E-N-[3-Pal]-Sarc-NH2 (*[Pen]-[Pen]* formdisulfidebond)]
Improvement (reduction) in PSSD signs score from baseline [1]: significantly greater improvement
Improvement (reduction) in PSSD symptoms score from baseline [1]: significantly greater improvement
Proportion achieving DLQI score of 0 or 1 [2]: significantly higher
IL-17A serum levels (IL-17A): Statistically significant reductions
Discontinued: Adverse Event, % [3, 4]: (2.5%)
Discontinued: Other Adverse Event, % [3, 4]: (2.5%)
Discontinued: Adverse Event, % [3, 5]: (2.4%)
Discontinued: Other Adverse Event, % [3, 5]: (2.4%)
Discontinued: Adverse Event, % [3, 6]: (2.9%)
Discontinued: Other Adverse Event, % [3, 6]: (2.9%)
Discontinued: Adverse Event, % [3, 7]: (7.0%)
Discontinued: Other Adverse Event, % [3, 7]: (7.0%)
Discontinued: Adverse Event, % [3, 8]: (4.7%)
Discontinued: Other Adverse Event, % [3, 8]: (4.7%)
Discontinued: Adverse Event, % [3, 9]: (2.4%)
Discontinued: Other Adverse Event, % [3, 9]: (2.4%)
Discontinued: Adverse Event, % [3, 10]: (2.5%)
Discontinued: Other Adverse Event, % [3, 10]: (2.5%)
Discontinued: Adverse Event, % [3, 11]: (4.7%)
Discontinued: Other Adverse Event, % [3, 11]: (4.7%)
Discontinued: Adverse Event, % [3, 12]: (1.3%)
Discontinued: Other Adverse Event, % [3, 12]: (1.3%)
Discontinued: Adverse Event, % [3, 13]: (3.6%)
Discontinued: Other Adverse Event, % [3, 13]: (3.6%)
